Test results as given in ChEMBL document CHEMBL1139343, “Pharmacophore guided discovery of small-molecule human apurinic/apyrimidinic endonuclease 1 inhibitors” (J Med Chem, 2009).

Legend:
[1] = molecular target: DNA repair nuclease/redox regulator APEX1 (Homo sapiens, UniProt P27695); assay: Inhibition of purified human recombinant APE1 expressed in Escherichia coli M15 cells
[2] = Inhibition of exonuclase 3
[3] = Selectivity index, IC50 for human recombinant APE1 over exonuclase 3
[4] = Inhibition of endonuclease 4
[5] = molecular target: Human immunodeficiency virus type 1 integrase (Human immunodeficiency virus 1, UniProt Q7ZJM1); assay: Inhibition of HIV1 integrase
Chain of Human immunodeficiency virus type 1 integrase (Q7ZJM1 whole entry): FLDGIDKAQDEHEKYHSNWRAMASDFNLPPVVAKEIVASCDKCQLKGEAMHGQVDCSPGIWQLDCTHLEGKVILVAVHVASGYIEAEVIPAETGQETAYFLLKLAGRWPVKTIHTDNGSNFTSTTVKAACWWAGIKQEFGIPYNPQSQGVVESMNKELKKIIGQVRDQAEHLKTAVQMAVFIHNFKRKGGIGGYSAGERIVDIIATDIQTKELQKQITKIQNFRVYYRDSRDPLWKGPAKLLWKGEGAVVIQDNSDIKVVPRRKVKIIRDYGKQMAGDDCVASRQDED

Chain of DNA repair nuclease/redox regulator APEX1 (P27695 whole entry): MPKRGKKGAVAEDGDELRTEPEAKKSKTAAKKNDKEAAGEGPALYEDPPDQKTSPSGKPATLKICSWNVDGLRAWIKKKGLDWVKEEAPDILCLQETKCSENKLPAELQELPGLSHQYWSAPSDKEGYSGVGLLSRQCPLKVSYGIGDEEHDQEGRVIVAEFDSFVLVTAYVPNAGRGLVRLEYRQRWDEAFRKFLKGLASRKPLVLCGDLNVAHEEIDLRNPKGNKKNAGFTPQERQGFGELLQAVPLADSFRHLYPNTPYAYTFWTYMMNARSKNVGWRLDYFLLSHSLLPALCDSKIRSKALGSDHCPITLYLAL

| Structure (SMILES) | IC50 [1] | also measured |
| --- | --- | --- |
| Cc1oc(C)c(C(=O)O)c1COc1ccccc1C(=O)O | 6 µM | IC50 [2]: 98 µM; Ratio IC50 [3]: 16; IC50 [4]: > 100 µM; IC50 [5]: > 100 µM |
| O=C(O)CCc1ccc(-c2ccc(Cl)cc2)n1CC(=O)O | 4 µM | IC50 [2]: > 100 µM; Ratio IC50 [3]: > 25; IC50 [4]: > 100 µM; IC50 [5]: > 100 µM |
| O=C(O)CN1C(=O)/C(=C\c2ccc(-c3cccc(C(=O)O)c3)o2)SC1=S | 6 µM | IC50 [2]: 70 µM; Ratio IC50 [3]: 12; IC50 [4]: > 100 µM; IC50 [5]: > 100 µM |
| O=C(O)Cn1c(CCCCc2nc3ccccc3n2CC(=O)O)nc2ccccc21 | 4 µM | IC50 [2]: 80 µM; Ratio IC50 [3]: 20; IC50 [4]: > 100 µM; IC50 [5]: > 100 µM |
| Cc1ccc(S(=O)(=O)CCc2nnc(NC(=O)CCc3ccccc3)s2)cc1 | > 100 µM | – |
| Cc1oc(C)c(C(=O)NCC(=O)O)c1C(=O)NCC(=O)O | 26 µM | – |
| Cc1oc(CSCCSCc2cc(C(=O)O)c(C)o2)cc1C(=O)O | 5 µM | – |
| O=C(Cn1cc(C(=O)c2ccco2)c2ccccc21)NCc1cccnc1 | > 100 µM | – |
| CS(=O)(=O)Nc1nc(CC(=O)O)cs1 | > 100 µM | – |
| Cc1ccc(OCc2ccoc2C(=O)O)cc1C | 11 µM | – |
| O=C(O)CCc1ccc(-c2ccc(F)cc2)n1CC(=O)O | 9 µM | – |
| O=C(O)c1cccc(S(=O)(=O)N2CCS(=O)(=O)CC2)c1 | 80 µM | – |
| CC(Oc1cc(OC(C)C(=O)O)c2c(c1)oc(=O)c1ccccc12)C(=O)O (stereo not given) | 8 µM | – |
| O=C(O)CCSc1nnc(SCCC(=O)O)s1 | 17 µM | – |
| O=S(=O)(c1ccc(OC(F)(F)F)cc1)N1CCCC(c2nc(O)c3nnn(Cc4ccccc4Cl)c3n2)C1 (stereo not given) | > 100 µM | – |
| C=CCn1c(Cc2ccccc2)nnc1SCC(=O)Nc1nnc(C)s1 | > 100 µM | – |
| O=C(O)c1ccc(NS(=O)(=O)c2cccs2)cc1 | > 100 µM | – |
| C=CCN1C(=O)C(Cc2ccccc2)S/C1=N/c1ccc(C(=O)O)cc1 (stereo not given) | 100 µM | – |
| CCOC(=O)c1cnc(SC(C)C(=O)O)nc1N (stereo not given) | > 100 µM | – |
| COc1cc(S(=O)(=O)N(Cc2ccc(Br)cc2)Cc2ccco2)ccc1-n1cnnn1 | > 100 µM | – |

| Structure (SMILES) | IC50 [1] | also measured |
| --- | --- | --- |
| O=C(O)CCS(=O)(=O)CCC(=O)O | 40 µM | – |
| Cc1c(OS(=O)(=O)c2ccccc2)cccc1OS(=O)(=O)c1ccccc1 | > 100 µM | – |
| O=C(O)CCn1c(=O)[nH]c(=O)n(CCC(=O)O)c1=O | 33 µM | – |
| Cc1oc(C(=O)O)cc1CSCC(C)C(=O)O (stereo not given) | 22 µM | – |
| O=C(O)Cc1cc(S(=O)(=O)c2ccc(Sc3ccc(C(=O)O)cc3)cc2)ccc1C(=O)O | 4 µM | IC50 [2]: 90 µM; Ratio IC50 [3]: 23; IC50 [4]: > 100 µM; IC50 [5]: > 100 µM |
| O=S(=O)(c1cc(S(=O)(=O)N2CCOCC2)c2n[n+]3c4cc(S(=O)(=O)N5CCOCC5)cc(S(=O)(=O)N5CCOCC5)c4[n-]n3c2c1)N1CCOCC1 | > 100 µM | – |
| CC1(C)C(C(=O)O)N2C(=O)C(NC(=O)C(C(=O)O)c3ccccc3)C2[S+]1[O-] (stereo not given) | > 100 µM | – |
| O=C(O)CNC1CS(=O)(=O)CC1O (stereo not given) | > 100 µM | – |
| C(=C\CSc1nnnn1-c1ccccc1)/CSc1nnnn1-c1ccccc1 | > 100 µM | – |
| CC1CCc2c(sc3nc(C4CC4)n4c(SCC(=O)Nc5nccs5)nnc4c23)C1 (stereo not given) | > 100 µM | – |
| O=C(O)Cn1c(=O)n(CC(=O)O)c2ccccc21 | 16 µM | – |
| O=C(O)c1oc2ccccc2c1CSc1ccccn1 | 27 µM | – |
| O=C(O)CC[S+]([O-])CCC(=O)O | 40 µM | – |
| COc1cc(-c2nnn[nH]2)ccc1OCC(=O)O | > 100 µM | – |
| O=C(O)CCCNc1n[nH]c(=O)[nH]c1=O | > 100 µM | – |
| O=C(O)c1cccc(NC(=O)C2CCCCC2C(=O)O)c1 (stereo not given) | 55 µM | – |
| O=C(O)CSC1CCS(=O)(=O)C1 (stereo not given) | > 100 µM | – |
| O=S(=O)(NCc1ccccc1)c1ccc(S(=O)(=O)N(Cc2ccc(Cl)cc2)Cc2ccco2)cc1 | > 100 µM | – |
| O=C(O)CCN1C(=O)/C(=C2/C(=O)N(CC(=O)O)c3ccccc32)SC1=S | 6 µM | IC50 [2]: 60 µM; Ratio IC50 [3]: 10; IC50 [4]: > 100 µM; IC50 [5]: > 100 µM |

Now from value to compound, other results behind:

| IC50 [1] | Structure (SMILES) | also measured |
| --- | --- | --- |
| > 100 µM | Cn1c(SCC(N)=O)nnc1-c1ccc(NS(C)(=O)=O)cc1 | – |
| > 100 µM | CCCS(=O)(=O)N1CCCC(c2nc(-c3ccc(C(C)C)cc3)no2)C1 (stereo not given) | – |
| > 100 µM | CCS(=O)(=O)N1CCCC(c2nc(O)c3nnn(Cc4ccccc4)c3n2)C1 (stereo not given) | – |
| 100 µM | Cc1cc(NC(=O)CCC(=O)O)ccc1NC(=O)c1cccs1 | – |
| > 100 µM | Cc1cc(S(=O)(=O)N2CCOCC2)ccc1OCC(=O)NCc1ccncc1 | – |
| > 100 µM | CCN(Cc1ccccc1)S(=O)(=O)c1ccc(S(=O)(=O)NC2CCC(C)CC2)cc1 (stereo not given) | – |
| 80 µM | O=C(O)CCn1c(=O)oc2cc(S(=O)(=O)O)ccc21 | – |
| 20 µM | Cc1nc2ccc(C(=O)O)cc2c(O)c1CCC(=O)O | – |
| > 100 µM | O=S(=O)(O)CCCSc1sc2ccccc2[n+]1CCCS(=O)(=O)O | – |
| > 100 µM | CCn1c(SCC(=O)c2cccs2)nnc1-c1ccc(NS(C)(=O)=O)cc1 | – |
| > 100 µM | CC(C)c1nnc(NC(=O)C2CCCN2S(=O)(=O)c2ccc(F)cc2)s1 (stereo not given) | – |
| > 100 µM | CCOC(=O)C(=Cc1c[nH]c2ccc(S(=O)(=O)N(C)C)cc12)C(=O)OCC | – |
| 6 µM | Cc1cc(CSCc2cc(C(=O)O)c(C)o2)oc1C(=O)O | – |
| > 100 µM | CCS(=O)(=O)Nc1cc2c(cc1C)C(S(=O)(=O)CC)C1=C2CCC1 (stereo not given) | – |
| > 100 µM | CCNC(=O)c1cc(S(=O)(=O)NCCC(=O)O)c(C)s1 | – |
| 40 µM | CN(C)c1ccc(-c2noc(C3CCN(S(=O)(=O)c4cccc(C(=O)O)c4)CC3)n2)cc1 | – |
| > 100 µM | Cc1cc(S(=O)(=O)NC2CCCC2)ccc1-n1cnnn1 | – |
| > 100 µM | CCN1/C(=C2/SC(=S)N(NC(C)=O)C2=O)Sc2ccc(S(=O)(=O)C(F)(F)F)cc21 | – |
| > 100 µM | CC1CCCCC1N(Cc1ccccc1F)S(=O)(=O)c1ccc(S(=O)(=O)N(C)C)cc1 (stereo not given) | – |
| > 100 µM | Cc1ccc(-c2noc(CNC(=O)CN(C)S(=O)(=O)c3ccc4ccccc4c3)n2)cc1 | – |
| 100 µM | Cc1cc(S(=O)(=O)N2CCOCC2)ccc1OCC(=O)O | – |
| 40 µM | Cc1oc(C(=O)O)cc1CSCc1cc(C(=O)O)oc1C | – |
